Results on four compounds are retold here after patent publication US6492328B2, “Novispirins: antimicrobial peptides” (priority 2000, dated 2002).

Data set [1] concerns E. coli ML 35P. The source says: (§1) Effect of serum. […] Because serum can be present in an inflammatory focus or exudate, the ability to function in the presence of serum would be a desirable property.
(§2) In these experiments, the underlay gel contained 60% RPMI-1640, ±2.5 or 20% normal human serum (NHS). The remainder of the solution was phosphate-buffered saline

For data set [2], the system named is P. aeruginosa MR 3007. To be noted: underlay gel 60% RPMI-1640.
Text: as §1, §2

Data set [3] concerns E. coli ML 35P. The data set is classed as cell-based, Escherichia coli. To be noted: mean ± SEM, n = 3. On the procedure: Antimicrobial activity. Several different methods were used to examine the antimicrobial properties of novispirins, including: a) two-stage radial diffusion assays; b) colony counting assays; and c) standard microbroth dilution assays.
Antimicrobial activity was tested in media with low, normal or high salinity. In radial diffusion assays, this was accomplished by using a low salt “basic medium” containing 0.3 mg of trypticase soy broth powder/ml of 10 mM sodium phosphate buffer, pH 7.4. Media with “normal” or “high” salinity were prepared by supplementing the basic medium with 100 mM NaCl to obtain media with normal salinity, or with 175-200 mM NaCl to obtain high salt media. Retention of activity against P. aeruginosa in high salt media is important because airway fluids from cystic fibrosis patients are reported to show hypersalinity, and other sites—including skin surfaces surfaces and the urinary bladder—may have locally high salt concentrations.
The relative activities of ovispirin and the novispirins against two organisms, E. coli and a multi-resistant strain of P. aeruginosa, are shown in FIG. 1. The MICs were obtained by radial diffusion assays performed under low, normal, and high salt conditions (which are denoted along the X-axis as 0, 100 and 200 mM NaCl, respectively).
Table 1 compares the activity of novispirins against these Gram-negative bacteria with its activity against Listeria monocytogenes, Staphylococcus aureus and C. albicans. […] Note that novispirins show activity against these Gram-positive bacteria when tested in physiological (100 mM NaCl) salt concentrations, and also that Novispirin G10 is quite active against C. albicans. Although neither ovispirin nor novispirins retained activity against C. albicans or the Gram positives under very high salt conditions (200 mM NaCl), they remained active against the Gram-negatives under these conditions. Consequently, even if the airways' NaCl concentrations are exceptionally high in CF patients, this factor will not impair the ability of ovispirin or novispirins to kill P. aeruginosa.

In data set [4] the test system is S. maltophilia 18CP. In words: Novispirins vs S. maltophilia (Table 5). Format: cell-based, Stenotrophomonas maltophilia. More on the design: unit not given here. To be noted: strain 18CP. On the procedure: (§3) Microorganisms used in this study included 13 different Pseudomonas aeruginosa strains. The AML-654 and LZ-1 strains are recent clinical isolates from the UCLA Clinical Microbiology laboratory. Nine strains (5 mucoid, 4 nonmucoid) were recent CF isolates provided by Dr. Lisa Saiman. All of the P. aeruginosa strains except PAO-1 strain were resistant to multiple conventional antibiotics, and all 9 CF isolates were resistant to 250 μg/ml of tobramycin. We have also tested 5 strains each of Stenotrophomonas maltophilia and Burkholderia cepacia from CF patients (also provided by Dr. Lisa Saiman), two strains of Escherichia coli (ML-35p and DH-5a), and single strains of Staphylococcus aureus[MRSA (methicillin-resistant S. aureus)] and C. albicans.

For data set [5], the system named is S. maltophilia 36CN. Put plainly: Novispirins vs S. maltophilia (Table 5). The data set is classed as cell-based, Stenotrophomonas maltophilia. More on the design: unit not given here. To be noted: strain 36CN. On the procedure: as §3
The test system of data set [6] is S. maltophilia 42CK. Put plainly: Novispirins vs S. maltophilia (Table 5). Also noted: unit not given here. The data set is classed as cell-based, Stenotrophomonas maltophilia. Particulars: strain 42CK. The procedure:
as §3

For data set [7], the system named is S. maltophilia 47CG. In words: Novispirins vs S. maltophilia (Table 5). Format: cell-based, Stenotrophomonas maltophilia. To be noted: strain 47CG. More on the design: unit not given here. The procedure:
as §3

The test system of data set [8] is S. maltophilia 51Cl. Put plainly: Novispirins vs S. maltophilia (Table 5). The data set is classed as cell-based, Stenotrophomonas maltophilia. More on the design: unit not given here. Particulars: strain 51Cl. On the procedure:
as §3

For data set [9], the system named is E. coli. In words: Two stage radial diffusion assay with 10 mM HEPES, G10 variants (Table 8). To be noted: mean ± SEM, n = 3, in µg/mL. The data set is classed as cell-based. The source says:
(§4) Amidation (—NH2) of the carboxy terminus in some of the novispirin G10 variants was designed to increase overall positive charge. The sequences of these peptides and their net charge is shown below in Table 7. The fractional (and pH dependent) charge on histidine12 was ignored in this calculation.
(§5) In Table 8, MIC signifies minimal inhibitory concentration, as determined by two stage radial diffusion assays. […] Shaded boxes show results that represent a significant improvement of activity (p<0.01 by t-test), relative to novispirin G10. […] None of the above G10 novispirin derivatives caused any hemolysis of human red blood cells, even when tested at 80 μg/ml. It is likely that other cationic amino acids (e.g., lysine, ornithine, etc) could also be used in position 12 to achieve better activity in the presence of calcium and magnesium ions.

In data set [10] the test system is K. pneumoniae. Described as above. The data set is classed as cell-based. To be noted: mean ± SEM, n = 3, in µg/mL.
Text: as §4, §5

The subject of data set [11] is P. aeruginosa. Described as above. The data set is classed as cell-based. Particulars: mean ± SEM, n = 3, in µg/mL.
Text: as §4, §5

Data set [12] has as its system S. aureus. Described as above. The data set is classed as cell-based. Particulars: mean ± SEM, n = 3, in µg/mL.
Text: as §4, §5

Data set [13] concerns human red blood cells. The data set is classed as cell-based. The procedure:
Hemolytic Activity: This was tested by incubating various concentrations of peptide with a suspension (2.8% v/v) of washed human, murine, sheep or bovine red cells in PBS. After 30 min at 37C, the tubes were centrifuged and the percentage of total hemoglobin released to the supernatant was measured.
Similar results were obtained with murine red blood cells. In contrast, none of these peptides were appreciably hemolytic towards sheep or bovine red blood cells.

The test system of data set [14] is MRC-5 human lung fibroblasts. The data set is classed as cell-based. The source says: FIG. 5 compares the cytotoxicity of these peptides for MRC-5 human lung fibroblasts.
Data set [15] is described as follows: Acute toxicity studies in mice, intravenous. The data set is classed as in vivo. On the procedure: In vivo toxicity. Acute toxicity studies were performed in mice. 3/3 mice survived an intravenous dose of 10 mg novispirin G10/kg body weight, and 1/3 survived a dose of 20 mg/kg.
Data set [16] concerns C. trachomatis serovar E. Put plainly: McCoy cell shell vial assay, inclusion-forming units. Format: cell-based, Chlamydia trachomatis. To be noted: 100 μg/ml, pre-incubation assays. The procedure: (§6) C. trachomatis serovar L2 causes invasive LGV, whereas serovars D and E represent typical genital strains. The effect of G-10 on Chlamydia trachomatis serovars (L2, D and E) was determined using standard and modified McCoy cell shell vial assays and varying concentrations of peptide. In the standard assay, the Chlamydia/peptide mixture was pre-incubated for 2 hr., then removed from the host cell monolayer before the 48-hr. incubation. In the modified assay, the pre-incubation mixture was left on the monolayer for the 48 hr. incubation. In a third assay, G-10 and Chlamydia were mixed and infected to cell monolayers without pre-incubation, and examined after 48 hr. Inclusion-forming units (IFUs) were scored to measure the peptide's inhibitory effect.

Data set [17] deals with C. trachomatis serovar D. Described as above. Format: cell-based, Chlamydia trachomatis. More on the design: dose or concentration left out as unconfirmed. The procedure:
as §6

For data set [18], the system named is C. trachomatis serovar L2. Described as above. Format: cell-based, Chlamydia trachomatis. More on the design: dose or concentration left out as unconfirmed. The procedure:
as §6

[19] abbreviates: Very high salinity (+200 mM NaCl).

Converted amounts (≈) assume the structure as drawn. Like-named read-outs stand apart in the source and are kept apart here. Where no end group is shown, it is not given here. Some results are limits rather than exact numbers.

Take `CC[C@H](C)[C@H](NC(=O)[C@H](CCCCN)NC(=O)[C@H](CCC(=O)O)NC(=O)[C@H](CCCCN)NC(=O)[C@H](CO)NC(=O)[C@H](CCCCN)NC(=O)[C@H](CCCNC(=N)N)NC(=O)[C@H](Cc1ccccc1)NC(=O)[C@H](Cc1ccccc1)NC(=O)[C@H](CC(=O)O)NC(=O)CNC(=O)[C@H](CC(C)C)NC(=O)[C@@H](N)CC(C)C)C(=O)NCC(=O)N[C@@H](CCCCN)C(=O)N[C@@H](CCC(=O)O)C(=O)N[C@@H](Cc1ccccc1)C(=O)N[C@@H](CCCCN)C(=O)N[C@@H](CCCNC(=N)N)C(=O)N[C@H](C(=O)N[C@H](C(=O)N[C@@H](CCC(N)=O)C(=O)N[C@@H](CCCNC(=N)N)C(=O)N[C@H](C(=O)N[C@@H](CCCCN)C(=O)N[C@@H](CC(=O)O)C(=O)N[C@@H](Cc1ccccc1)C(=O)N[C@@H](CC(C)C)C(=O)N[C@@H](CCCNC(=N)N)C(=O)N[C@@H](CC(N)=O)C(=O)N[C@@H](CC(C)C)C(=O)N[C@H](C(=O)N1CCC[C@H]1C(=O)N[C@@H](CCCNC(=N)N)C(=O)N[C@H](C(=O)N[C@@H](CCC(=O)O)C(=O)N[C@@H](CO)C(=O)O)[C@@H](C)O)C(C)C)[C@@H](C)CC)C(C)C)[C@@H](C)CC` [LL-37, reference compound]: the MIC in data set [1] (0% NHS, underlay gel 60% RPMI-1640) stood at 5.8 µg/mL (≈ 1.29 µM); in data set [1] (2.5% NHS, underlay gel 60% RPMI-1640), 21.0 µg/mL (≈ 4.67 µM); in data set [2] (0% NHS) it was 12.7 µg/mL (≈ 2.83 µM); in data set [2] (2.5% NHS), 23.7 µg/mL (≈ 5.27 µM); in data set [2] (20% NHS) it was 141 µg/mL (≈ 31.4 µM).
As for “KNLRRIIRKGIHIIKKYG-OH [G10 Novispirin, K N L R R I I R K G I H I I K K Y G]”, the MIC amounted to 0.1 ± 0.0 µg/mL in data set [3] (Low Salt (+0 mM NaCl)); 0.1 ± 0.0 µg/mL in data set [3] (Normal salinity (+100 mM NaCl)); 1.8 ± 0.8 µg/mL in data set [3] (setting [19]); 21.2 ± 0.36 in data set [9] (+1 mM Ca); 20.3 ± 0.1 in data set [9] (+1 mM Mg); 0.09 ± 0.02 in data set [9] (No Ca/Mg). Further, the MIC in data set [10] (+1 mM Ca) is listed as above 250; in data set [10] (+1 mM Mg), above 250; in [10] (No Ca/Mg), 0.17 ± 0.03; in data set [11] (+1 mM Ca) it was above 250; in [11] (+1 mM Mg), above 250; in data set [11] (No Ca/Mg), 0.17 ± 0.04. For the same compound, the MIC in [12] (+1 mM Ca) is on record as 99.0 ± 5.7; in data set [12] (+1 mM Mg) it was above 79; in data set [12] (No Ca/Mg) it was 22.7 ± 2.1. Besides, the “activity vs S. maltophilia” value was found to be 0.70 in [4] (+100 mM NaCl); 1.30 in data set [4] (+175 mM NaCl); 0.40 in data set [4] (LOW SALT CONDITIONS); 0.29 in data set [5] (+100 mM NaCl); 0.36 in data set [5] (+175 mM NaCl); 0.15 in data set [5] (LOW SALT CONDITIONS). Moreover, the “activity vs S. maltophilia” value in data set [6] (+100 mM NaCl) turned out to be 0.67; in data set [6] (+175 mM NaCl), 10.0; in data set [6] (LOW SALT CONDITIONS), 0.43; in [7] (+100 mM NaCl) it was 0.68; in data set [7] (+175 mM NaCl), 0.63; in [7] (LOW SALT CONDITIONS), 0.08. The “activity vs S. maltophilia” value came out at 3.57 in data set [8] (+100 mM NaCl), 8.18 in data set [8] (+175 mM NaCl) and 0.45 in data set [8] (LOW SALT CONDITIONS). The “hemolytic activity for human red blood cells” value in [13] is “nonhemolytic”. Also, in [14], the “cytotoxicity for MRC-5 human lung fibroblasts” value is reported as “virtually devoid of cytotoxicity”. Moreover, in data set [15] (10 mg/kg dose, if blood volume of a mouse is 5% of its mass), the peak level entry is on record as “approximately 200 micrograms/ml”. The mice survived in data set [15] (intravenous dose of 10 mg/kg body weight) is recorded as 3/3; in [15] (intravenous dose of 20 mg/kg) it was 1/3. Further, the “inhibition of C. trachomatis serovar E” value in data set [16] was “completely inhibited”. Moreover, in [17], the “serovar D IFUs reduced” value is given as 99.4-100%. For the same compound, in data set [18], the “serovar L2 IFUs reduced” value is listed as 92.7-99.1%.
Regarding “KNLRRIIRKIIHIIKKYG [Ovispirin, K N L R R I I R K I I H I I K K Y G]”, the MIC in [3] (Low Salt (+0 mM NaCl)) stood at 0.7 ± 0.0 µg/mL; in [3] (Normal salinity (+100 mM NaCl)), 0.7 ± 0.1 µg/mL; in [3] (setting [19]), 1.5 ± 0.6 µg/mL; in data set [1] (ML 35P), 1.7 µg/mL. In data set [13], the “hemolytic activity for human red blood cells” value is recorded as “about as hemolytic for human red blood cells as protegrin PG-1”.
Regarding “KNLRRIIRKTIHIIKKYG [T10 Novispirin, K N L R R I I R K T I H I I K K Y G]”, the MIC was found to be 0.5 ± 0.2 µg/mL in [3] (Low Salt (+0 mM NaCl)), 0.3 ± 0.2 µg/mL in data set [3] (Normal salinity (+100 mM NaCl)) and 2.7 ± 1.1 µg/mL in data set [3] (setting [19]). Also, the “cytotoxicity for MRC-5 human lung fibroblasts” value in data set [14] is “virtually devoid of cytotoxicity”.
